Results reported in patent publication US20250388896A1, “COMPOSITION AND METHODS FOR TRANSGENE INSERTION” (ARTISAN DEVELOPMENT LABS, INC, priority 2022, published 2025).

What was measured:
Type in all cases: cell-based, human
[1] = tested on: eight different loci (PDCD1, TIM3, LAG3, TIGIT, CTLA4, PTPN6, PTPN11, CD247); assay: gNA screen and validation: INDEL and frameshift frequency at eight loci by amplicon sequencing; conditions: Jurkat cells; gNAs adjacent to all YTTN PAM variants
Method: (§1) Ribonucleoprotein complexes (RNPs) were generated by incubating respective guide nucleic acids (gNAs) with MAD7 in the molar ratio of 3:2 gNA:MAD7 for 15 minutes at room temperature immediately before transfection. For Jurkat experiments, the RNP complexes were generated by mixing the respective gNA (150 pmol), MAD7 (100 pmol), and nuclease-free water, unless otherwise stated.
(§2) Lonza 4D Nucleofector with Shuttle unit (V4SC-2960 Nucleocuvette Strips) was used for transfection, following the manufacturer's instructions. […]
(§3) Extracted genomic DNA was quantified using the NanoDrop (ThermoFisher Scientific). […] The DNA was eluted from the beads with nuclease-free water and the size of the purified amplicons analyzed on a 2% agarose E-gel using the E-gel electrophoresis system (ThermoFisher Scientific). In the second PCR, unique pairs of Illumina-compatible indexes (Nextera XT Index Kit v2) were added to the amplicons using the KAPA HiFi HotStart Ready Mix (Roche). […] Sizes of the purified DNA fragments were validated on a 2% agarose gel using the E-gel electrophoresis system (ThermoFisher Scientific), quantified using Qubit dsDNA HS Assay Kit (Thermo Fisher) and then pooled in equimolar concentrations. […] The final library was sequenced on Illumina MiSeq System using the MiSeq Reagent Kit v.2 (300 cycles, 2×250 bp, paired-end reads). […]

[2] = tested on: predicted off-target sites; assay: INDEL frequency at predicted off-target sites by targeted deep sequencing; conditions: Jurkat cells
Text: Extracted genomic DNA was quantified using the NanoDrop (ThermoFisher Scientific). […] Amplification products were purified with Agencourt AMPure XP beads (Ramcon), using the sample to beads ratio of 1:1.8. The DNA was eluted from the beads with nuclease-free water and the size of the purified amplicons analyzed on a 2% agarose E-gel using the E-gel electrophoresis system (ThermoFisher Scientific). In the second PCR, unique pairs of Illumina-compatible indexes (Nextera XT Index Kit v2) were added to the amplicons using the KAPA HiFi HotStart Ready Mix (Roche). The amplified products were purified with Agencourt AMPure XP beads (Ramcon), using the sample to bead ratio of 1:1.8. […] Sizes of the purified DNA fragments were validated on a 2% agarose gel using the E-gel electrophoresis system (ThermoFisher Scientific), quantified using Qubit dsDNA HS Assay Kit (Thermo Fisher) and then pooled in equimolar concentrations. […] The final library was sequenced on Illumina MiSeq System using the MiSeq Reagent Kit v.2 (300 cycles, 2×250 bp, paired-end reads). […]
Initial quality assessment of the obtained reads was performed with FastQC36. […] For the ORF disruption analysis, CRISPRessoBatch command with the parameters --cleavage_offset 1 -coding_seq <EXON_SEQ> --quantification_window_size 0 --quantification_window_center 1 --expand_ambiguous_alignments was used. […]

[3] = tested on: PDCD1 protein; assay: PDCD1 knock-out: surface expression of PDCD1 protein by flow cytometry; conditions: Jurkat cells
Method: Flow cytometric assessments were carried out on a CytoFLEX S instrument (Beckmen Coulter) using a 96-well plate format. Measurements of cell viability, PDCD1 expression, GFP expression, and CAR expression were performed on 10,000 or 20,000 single cell events in Jurkat or primary T-cells, respectively.
For detection of PDCD1 knock-out efficiency, approx. 250,000 Jurkat cells per sample were transferred onto 96-well V-bottom cell culture plates and assessed following a series of consecutive washing and staining steps. The first step included centrifuging the cells at 300 g for 5 minutes at 4° C. and discarding the supernatant. Afterwards, the cells were stained using 100 μL Cell Staining Buffer (Biolegend) with APC/Cyanine7 anti-human CD279 (PD-1) antibody (1:100; Biolegend) and incubated for 30 minutes at 4° C. in the dark. The cells were then centrifuged at 300 g for 5 minutes at 4° C. and the supernatant discarded. The next step included two repeats of centrifugation at 300 g for 5 minutes at 4° C., supernatant removal, and cell washing in 150 μL ice-cold Cell Staining Buffer (Biolegend). In the final step, the cells were re-suspended in 100 μL Cell Staining Buffer for the flow cytometry measurements (excitation: red laser; emission: […]).
High-efficiency gNAs identified in our initial analysis were validated by assaying INDEL frequency for the top three or five gNAs for each of the selected immunologically relevant genes (FIG. 14). […] Alternating grey and white zones on the plot represent groups of three to five high-efficiency gNAs per locus. […] Using the CRISPresso2 software, the degree of open reading frame (ORF) disruption for each of the validated gNAs was estimated (FIG. 14). In addition, for four high-efficiency gNAs targeting three different exons at the PDCD1 locus, surface expression of the PDCD1 protein was measured by flow cytometry 4, 7, and 11 days post-transfection (data not shown). […] Average fraction of INDELs leading to frameshifts (dashed line) is approx. 66%. Alternating grey and white zones on the plot represent groups of three to five high-efficiency gNAs per locus.

[4] = tested on: TIM3; assay: gNA screen INDEL/frameshift frequency, TIM3; conditions: Jurkat cells; CRISPResso2 ORF disruption analysis
Method: as §1, §2, §3

[5] = measured 4, 7 and 11 days post-transfection, day of value not stated

For MAD7: type V-A Cas nuclease MAD7, the “editing by PAM motif” value [1] was “demonstrated editing with all eight combinations of YTTN PAM” and the “INDEL frequency of MAD7 at predicted off-target sites” value ([2]; all assayed off-target sites, Pairwise T-test, P≥0.05) was “No significant INDEL frequency”.

With “crPDCD1 3: high-efficiency gNA targeting the PDCD1 locus (guide CAGUGGCGAGAGAAGACCCCG; listed as RNA, further chemistry not given here)” the “surface expression of the PDCD1 protein” value [3, 5] was 35%.

With “crPDCD1 4: high-efficiency gNA targeting the PDCD1 locus (guide CUAGCGGAAUGGGCACCUCAU; listed as RNA, further chemistry not given here)” the “surface expression of the PDCD1 protein” value [3, 5] was 85%.

In the case of “crPDCD1_2: gNA targeting the PDCD1 gene at the extracellular domain of the protein (guide UCUGCAGGGACAAUAGGAGCC; listed as RNA, further chemistry not given here)”, the “off-target activity (INDEL formation) at predicted off-target sites” value ([2]; 25 predicted sites, up to four mismatches, crPDCD1_2_13 and crPDCD1_2_15 sites, insignificant vs MOCK (P≥0.05)) is reported as “low-level off-target activity”, the “surface expression of the PDCD1 protein” value ([3]; 4 days post-transfection) is reported as 10% and the “surface expression of the PDCD1 protein” value ([3]; day 11 post-transfection) is reported as “remained at this level”.

For “crPDCD1_5: high-efficiency gNA targeting the PDCD1 locus (guide GUGCUAAACUGGUACCGCAUG; listed as RNA, further chemistry not given here)”, the “surface expression of the PDCD1 protein” value [3, 5] was 85%.

In the case of “crTIM3_1: validated gNA targeting TIM3 (guide CUUGUAAGUAGUAGCAGCAGC; listed as RNA, further chemistry not given here)”, the “frameshifts frequency (fraction of frameshift to INDEL)” value [4] is reported as 23%.

In the case of “crTIM3_3: validated gNA targeting TIM3 (guide UAAGUAGUAGCAGCAGCAGCA; listed as RNA, further chemistry not given here)”, the “frameshifts frequency (fraction of frameshift to INDEL)” value [4] is reported as 44%.
